According to patent US9833497B2, “Human originated EGF domain proteins and use of the same” (CHENGDU SOURCEBIO LIMITED-LIABILITY COMPANY, priority 2013, dated 2017):

Legend:
Assay type in all cases: cell-based
E. coli DH5α = assay: Antibacterial activity: MIC and growth curve against E. coli DH5α in 96-well plate; settings: minimal inhibitory concentration against E. coli DH5α; 96-well plate, 5×10^5 CFU/mL, 37° C., judged after 8 h
Outline: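 MIC taken as lowest protein level with no bacterial growth, tracked by A600 every 30 min during 37 °C, 175 rpm culture. Two-fold protein series 50-12.5 μg/mL final, triplicate wells, against 5×10^5 CFU/mL of LB-washed mid-log cells.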

E. coli BL21 = assay: MIC against Gram-negative bacteria: E. coli BL21; settings: for MIC against E. coli BL21 / MIC / MIC (μg/mL) E. coli BL21: E. coli BL21
Outline: (§1)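 LB broth cultures at McFarland 0.5, spun down, resuspended, diluted to 5×10^5 CFU/mL final. Two-fold serial dilutions of purified human EGF domain proteins, triplicate. 37° C, 175 rpm shaking. Endpoint: no visible growth.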

Pseudomonas aeruginosa = assay: MIC against Gram-negative bacteria: Pseudomonas aeruginosa
Outline: as §1

Klebsiella pneumonia = assay: MIC against Gram-negative bacteria: Klebsiella pneumonia
Outline: as §1

Enterobacter cloacae = assay: MIC against Gram-negative bacteria: Enterobacter cloacae
Outline: as §1

Aeromonas hydrophila = assay: MIC against Gram-negative bacteria: Aeromonas hydrophila
Outline: as §1

Citrobacter diversus = assay: MIC against Gram-negative bacteria: Citrobacter diversus
Outline: as §1

Moraxella catarrhalis = assay: MIC against Gram-negative bacteria: Moraxella catarrhalis
Outline: as §1

Proteus mirabilis = assay: MIC against Gram-negative bacteria: Proteus mirabilis
Outline: as §1

Proteus vulgaris = assay: MIC against Gram-negative bacteria: Proteus vulgaris
Outline: as §1

Serratia marcescens = assay: MIC against Gram-negative bacteria: Serratia marcescens
Outline: as §1

[1] = 96-well plate, 5×10^5 CFU/mL, 37° C., 10 h
[2] = Pseudomonas aeruginosa, 96-well plate, 5×10^5 CFU/mL, 37° C., 10 h
[3] = Klebsiella pneumonia, 96-well plate, 5×10^5 CFU/mL, 37° C., 10 h
[4] = Enterobacter cloacae, 96-well plate, 5×10^5 CFU/mL, 37° C., 10 h
[5] = Aeromonas hydrophila, 96-well plate, 5×10^5 CFU/mL, 37° C., 10 h
[6] = Citrobacter diversus, 96-well plate, 5×10^5 CFU/mL, 37° C., 10 h
[7] = Moraxella catarrhalis, 96-well plate, 5×10^5 CFU/mL, 37° C., 10 h
[8] = Proteus mirabilis, 96-well plate, 5×10^5 CFU/mL, 37° C., 10 h
[9] = Proteus vulgaris, 96-well plate, 5×10^5 CFU/mL, 37° C., 10 h
[10] = Serratia marcescens, 96-well plate, 5×10^5 CFU/mL, 37° C., 10 h
[11] = P. aeruginosa, 10 h cultivation at 37° C.
[12] = K. pneumonia, 10 h cultivation at 37° C.
[13] = E. cloacae, 10 h cultivation at 37° C.
[14] = A. hydrophila, 10 h cultivation at 37° C.
[15] = C. diversus, 10 h cultivation at 37° C.
[16] = M. catarrhalis, 10 h cultivation at 37° C.
[17] = P. mirabilis, 10 h cultivation at 37° C.
[18] = P. vulgaris, 10 h cultivation at 37° C.
[19] = S. marcescens, 10 h cultivation at 37° C.

PRT1199 (AFCEEGCRYGGTCVAPNKCVCPSGFTGSHCE; listed as Homo sapiens)
MIC (E. coli DH5α): 50 µg/mL | MIC against E. coli BL21 (E. coli BL21; [1]): 12.5 µg/mL | MIC against P. aeruginosa (Pseudomonas aeruginosa; [2]): 50 µg/mL | MIC against K. pneumonia (Klebsiella pneumonia; [3]): 12.5 µg/mL | MIC against E. cloacae (Enterobacter cloacae; [4]): 50 µg/mL | MIC against A. hydrophila (Aeromonas hydrophila; [5]): 25 µg/mL | MIC against C. diversus (Citrobacter diversus; [6]): 25 µg/mL | MIC against M. catarrhalis (Moraxella catarrhalis; [7]): 12.5 µg/mL | MIC against P. mirabilis (Proteus mirabilis; [8]): 25 µg/mL | MIC against P. vulgaris (Proteus vulgaris; [9]): 50 µg/mL | MIC against S. marcescens (Serratia marcescens; [10]): 25 µg/mL

PRT903 (DINECASDPCRNGANCTDCVDSYTCTCPAGFSGIHCE; listed as Homo sapiens)
MIC (E. coli DH5α): 12.5 µg/mL | MIC (E. coli BL21; 10 h cultivation at 37° C.): 50 µg/mL | MIC (Pseudomonas aeruginosa; [11]): 12.5 µg/mL | MIC (Klebsiella pneumonia; [12]): 25 µg/mL | MIC (Enterobacter cloacae; [13]): 50 µg/mL | MIC (Aeromonas hydrophila; [14]): 12.5 µg/mL | MIC (Citrobacter diversus; [15]): 50 µg/mL | MIC (Moraxella catarrhalis; [16]): 12.5 µg/mL | MIC (Proteus mirabilis; [17]): 25 µg/mL | MIC (Proteus vulgaris; [18]): 50 µg/mL | MIC (Serratia marcescens; [19]): 12.5 µg/mL

PRT1388 (RDSCPVLCGGNGEYEKGHCVCRHGWKGPECDV; listed as Homo sapiens)
MIC (E. coli DH5α): 100 µg/mL | MIC against E. coli BL21 (E. coli BL21; 5×10^5 CFU/mL, 10 h cultivation at 37° C.): 12.5 µg/mL | MIC against P. aeruginosa (Pseudomonas aeruginosa; Pseudomonas aeruginosa, 5×10^5 CFU/mL, 10 h cultivation at 37° C.): 12.5 µg/mL | MIC against K. pneumonia (Klebsiella pneumonia; Klebsiella pneumonia, 5×10^5 CFU/mL, 10 h cultivation at 37° C.): 12.5 µg/mL | MIC against E. cloacae (Enterobacter cloacae; Enterobacter cloacae, 5×10^5 CFU/mL, 10 h cultivation at 37° C.): 12.5 µg/mL | MIC against A. hydrophila (Aeromonas hydrophila; Aeromonas hydrophila, 5×10^5 CFU/mL, 10 h cultivation at 37° C.): 25 µg/mL | MIC against C. diversus (Citrobacter diversus; Citrobacter diversus, 5×10^5 CFU/mL, 10 h cultivation at 37° C.): 12.5 µg/mL | MIC against M. catarrhalis (Moraxella catarrhalis; Moraxella catarrhalis, 5×10^5 CFU/mL, 10 h cultivation at 37° C.): 25 µg/mL | MIC against P. mirabilis (Proteus mirabilis; Proteus mirabilis, 5×10^5 CFU/mL, 10 h cultivation at 37° C.): 12.5 µg/mL | MIC against P. vulgaris (Proteus vulgaris; Proteus vulgaris, 5×10^5 CFU/mL, 10 h cultivation at 37° C.): 12.5 µg/mL | MIC against S. marcescens (Serratia marcescens; Serratia marcescens, 5×10^5 CFU/mL, 10 h cultivation at 37° C.): 12.5 µg/mL

PRT4 (LDVTCNIKNGRCEQFCKNSADNKVVCSCTEGYRLAENQKSCE; listed as Homo sapiens)
MIC (E. coli DH5α): 25 µg/mL | MIC (μg/mL) E. coli BL21 (E. coli BL21; [1]): 50 µg/mL | MIC (μg/mL) P. aeruginosa (Pseudomonas aeruginosa; [2]): 25 µg/mL | MIC (μg/mL) K. pneumonia (Klebsiella pneumonia; [3]): 25 µg/mL | MIC (μg/mL) E. cloacae (Enterobacter cloacae; [4]): 12.5 µg/mL | MIC (μg/mL) A. hydrophila (Aeromonas hydrophila; [5]): 25 µg/mL | MIC (μg/mL) C. diversus (Citrobacter diversus; [6]): 12.5 µg/mL | MIC (μg/mL) M. catarrhalis (Moraxella catarrhalis; [7]): 25 µg/mL | MIC (μg/mL) P. mirabilis (Proteus mirabilis; [8]): 25 µg/mL | MIC (μg/mL) P. vulgaris (Proteus vulgaris; [9]): 50 µg/mL | MIC (μg/mL) S. marcescens (Serratia marcescens; [10]): 25 µg/mL

PRT795 (WGFGCNLTCQCLNGGACNTLDGTCTCAPGWRGEKCE; listed as Homo sapiens)
MIC (E. coli DH5α): 50 µg/mL | MIC (μg/mL) E. coli BL21 (E. coli BL21; 10 h cultivation at 37° C., 5×10^5 CFU/mL): 25 µg/mL | MIC (μg/mL) P. aeruginosa (Pseudomonas aeruginosa; P. aeruginosa, 10 h cultivation at 37° C., 5×10^5 CFU/mL): 50 µg/mL | MIC (μg/mL) K. pneumonia (Klebsiella pneumonia; K. pneumonia, 10 h cultivation at 37° C., 5×10^5 CFU/mL): 50 µg/mL | MIC (μg/mL) E. cloacae (Enterobacter cloacae; E. cloacae, 10 h cultivation at 37° C., 5×10^5 CFU/mL): 12.5 µg/mL | MIC (μg/mL) A. hydrophila (Aeromonas hydrophila; A. hydrophila, 10 h cultivation at 37° C., 5×10^5 CFU/mL): 25 µg/mL | MIC (μg/mL) C. diversus (Citrobacter diversus; C. diversus, 10 h cultivation at 37° C., 5×10^5 CFU/mL): 50 µg/mL | MIC (μg/mL) M. catarrhalis (Moraxella catarrhalis; M. catarrhalis, 10 h cultivation at 37° C., 5×10^5 CFU/mL): 25 µg/mL | MIC (μg/mL) P. mirabilis (Proteus mirabilis; P. mirabilis, 10 h cultivation at 37° C., 5×10^5 CFU/mL): 25 µg/mL | MIC (μg/mL) P. vulgaris (Proteus vulgaris; P. vulgaris, 10 h cultivation at 37° C., 5×10^5 CFU/mL): 25 µg/mL | MIC (μg/mL) S. marcescens (Serratia marcescens; S. marcescens, 10 h cultivation at 37° C., 5×10^5 CFU/mL): 50 µg/mL

PRT979 (LPDPCLSSPCAHGARCSVGPDGRFLCSCPPGYQGRSCR; listed as Homo sapiens)
MIC (E. coli DH5α): 50 µg/mL | MIC (E. coli BL21; 10 h cultivation at 37° C.): 12.5 µg/mL | MIC (Pseudomonas aeruginosa; [11]): 50 µg/mL | MIC (Klebsiella pneumonia; [12]): 12.5 µg/mL | MIC (Enterobacter cloacae; [13]): 50 µg/mL | MIC (Aeromonas hydrophila; [14]): 12.5 µg/mL | MIC (Citrobacter diversus; [15]): 100 µg/mL | MIC (Moraxella catarrhalis; [16]): 25 µg/mL | MIC (Proteus mirabilis; [17]): 12.5 µg/mL | MIC (Proteus vulgaris; [18]): 25 µg/mL | MIC (Serratia marcescens; [19]): 12.5 µg/mL

PRT652 (DLDECAFPGVCPSGVCTNTAGSFSCKDCDGGYRPSPLGDSCE; listed as Homo sapiens)
MIC (E. coli DH5α): 12.5 µg/mL | MIC E. coli BL21 (E. coli BL21; [1]): 25 µg/mL | MIC P. aeruginosa (Pseudomonas aeruginosa; [1]): 50 µg/mL | MIC K. pneumonia (Klebsiella pneumonia; [1]): 25 µg/mL | MIC E. cloacae (Enterobacter cloacae; [1]): 12.5 µg/mL | MIC A. hydrophila (Aeromonas hydrophila; [1]): 25 µg/mL | MIC C. diversus (Citrobacter diversus; [1]): 50 µg/mL | MIC M. catarrhalis (Moraxella catarrhalis; [1]): 25 µg/mL | MIC P. mirabilis (Proteus mirabilis; [1]): 12.5 µg/mL | MIC P. vulgaris (Proteus vulgaris; [1]): 25 µg/mL | MIC S. marcescens (Serratia marcescens; [1]): 50 µg/mL
